# Measurements from patent publication US7217413B1, “Use of novel agents inducing cell death in synergy with interferons” (priority 1998, dated 2007).
# Residues, ends and D or L forms follow the SMILES beside them. *: point of attachment. Cbz = O=C(OCc1ccccc1)*; CH2F = FC*
# Tests used:
# REF (T) PML cells [1] = assay: TUNEL test of cell death triggered by PML (ZnCl2 induction); type: cell-based, rat
# Method: (§1) The REF (T) and MEF (T) cells are rat and mouse embryonic fibroblasts immortalized by an SV4DT expression vector. […] For clonogenicity tests, the cells were transfected with 10 μg of SRαtkneo-PML or SRαkneo on culture dishes 10 cm in diameter and selected with neomycin (500 μg/ml). To obtain inducible clones, a pool of RET (T) cells was cotransfected with the plasmid pKSmMt-PML and a hygromycin resistance vector (DSP-Hygro). The resistant colonies were examined for the expression of PML after four hours of treatment with ZnCl2 (150 μM) and subjected to a second cycle of cloning by limiting dilution. Inducible CHO clones were constructed in a similar manner. The monocytes were prepared according to the method of Estaquier et al., 1997. Etoposide (used at 100 μM for 16 to 24 hours) was obtained from Biomol Research Laboratories, zVAD (benzyloxycarbonyl-Val-Ala-Asp fluoromethyl ketone, used at 250 μg/ml) is marketed by Bachem and rat IFNα by Access BioMedical. The human α-interferon was provided by Schering-Plough. The antibodies against the human PML protein are described in the article by Daniel et al., 1993. The Western blot experiments with the endogenous rat PML protein were carried out with the monoclonal antibody 5E10 which detects both rat PML and human PML.
# The cells were treated for 2 hours with 150 μM of ZnCl2 (unless otherwise stated) in the presence or absence of heat-inactivated foetal calf serum, and then the cells were washed and incubated in a ZnCl2-free medium. The TUNEL test was carried out according to the manufacturer's instructions (Boehringer Mannheim, kit for detection of cell death in situ), with the exception of the fixing step (4% formaldehyde in phosphate PBS buffer for 10 minutes). The cellular DNA content was evaluated by incubating for 10 minutes in propidium iodide at 50 μg/ml, in the presence of Rnase A at 100 μg/ml at 4° C. […] The samples were analysed on a FACScan analyser (Lysis II software, Becton Dickinson). […] After centrifugation, 20 μl of supernatant and 180 μl of reaction buffer (100 mM Hepes, pH 7.4, 2% of glycerol, 5 mM DTT, 0.5 mM EDTA, 50 μM DEVD-pNA (Biomol Research Laboratories)) were mixed and the absorbence at 405 nm was measured after incubating for four hours at 37° C. […]
# It is known that the execution of programmed cell death involves the proteolytic activation—of caspases which induce the phenotypic changes in apoptosis by cleavage of nuclear and cytoplasmic proteins (Salvesen et al., 1997). […] Unlike etoposide, no significant cleavage of the colorimetric caspase substrates, YVAD-pNa (class 1 caspase, Boehringer Mannheim) and DEVD-pNA (class 3 caspase, Boehringer Mannheim) after induction with PML could be detected (FIG. 2B).
# REF (T) PML cells [2] = assay: Kinetics of synchronized cell death after ZnCl2 induction of PML; type: cell-based, rat
# Method: The cells were treated for 2 hours with 150 μM of ZnCl2 (unless otherwise stated) in the presence or absence of heat-inactivated foetal calf serum, and then the cells were washed and incubated in a ZnCl2-free medium. The TUNEL test was carried out according to the manufacturer's instructions (Boehringer Mannheim, kit for detection of cell death in situ), with the exception of the fixing step (4% formaldehyde in phosphate PBS buffer for 10 minutes). The cellular DNA content was evaluated by incubating for 10 minutes in propidium iodide at 50 μg/ml, in the presence of Rnase A at 100 μg/ml at 4° C. Analysis of the expression of phosphatidylserine on the outer sheet of the cell membranes was carried out using Annexin-V-fluos labelling (Boehringer Mannheim) and a loss of mitochondrial polarity with Rhodamin 123 (molecular probes) according to the manufacturer's instructions. The samples were analysed on a FACScan analyser (Lysis II software, Becton Dickinson). […] After centrifugation, 20 μl of supernatant and 180 μl of reaction buffer (100 mM Hepes, pH 7.4, 2% of glycerol, 5 mM DTT, 0.5 mM EDTA, 50 μM DEVD-pNA (Biomol Research Laboratories)) were mixed and the absorbence at 405 nm was measured after incubating for four hours at 37° C. […]
# PML protein = assay: Western blot of PML protein expression and location on nuclear bodies; type: cell-based, rat; details: REF (T) cells
# Method: The REF (T) and MEF (T) cells are rat and mouse embryonic fibroblasts immortalized by an SV4DT expression vector. […] The Western blot experiments with the endogenous rat PML protein were carried out with the monoclonal antibody 5E10 which detects both rat PML and human PML.
# REF (T) PML cells [3] = assay: TUNEL test of cell death induced by IFNα; type: cell-based, rat; details: for cell death evaluated by TUNEL (positive TUNEL signal): with 1 000 U/ml of IFNα
# Method: as §1
# The cells were treated for 2 hours with 150 μM of ZnCl2 (unless otherwise stated) in the presence or absence of heat-inactivated foetal calf serum, and then the cells were washed and incubated in a ZnCl2-free medium. The TUNEL test was carried out according to the manufacturer's instructions (Boehringer Mannheim, kit for detection of cell death in situ), with the exception of the fixing step (4% formaldehyde in phosphate PBS buffer for 10 minutes). The cellular DNA content was evaluated by incubating for 10 minutes in propidium iodide at 50 μg/ml, in the presence of Rnase A at 100 μg/ml at 4° C. Analysis of the expression of phosphatidylserine on the outer sheet of the cell membranes was carried out using Annexin-V-fluos labelling (Boehringer Mannheim) and a loss of mitochondrial polarity with Rhodamin 123 (molecular probes) according to the manufacturer's instructions. The samples were analysed on a FACScan analyser (Lysis II software, Becton Dickinson). For the cleavage of the substrate with caspases, 5×10^6 cells were washed in PBS buffer, and incubated for one hour at 4° C. in 200 μl of lysis buffer (10 mM Hepes, pH 7.4, 2 mM EDTA, 2 mM DTT, 0.1% CHAPS). After centrifugation, 20 μl of supernatant and 180 μl of reaction buffer (100 mM Hepes, pH 7.4, 2% of glycerol, 5 mM DTT, 0.5 mM EDTA, 50 μM DEVD-pNA (Biomol Research Laboratories)) were mixed and the absorbence at 405 nm was measured after incubating for four hours at 37° C. The anti-PARP polyclonal antibody SA-252 is marketed by Biomol Research Laboratories.
# The table below represents the cell death, evaluated by TUNEL, of REF (T) PML cells treated for two days with 1 000 U/ml of IFNα and 10^−6 M of As2O3 or of zVAD.
# Primary monocytes = assay: Survival of primary monocytes exposed to α-interferon; type: cell-based
# [4] = treated for two days, 10^-6 M of As2O3 or of zVAD
Compound,positive cells / positive TUNEL signal (REF (T) PML cells [1]; ZnCl2 alone) [%],time to synchronized cell death of the whole cell population (REF (T) PML cells [2]; 50 μM of ZnCl2) [h],time to synchronized cell death of the whole cell population (REF (T) PML cells [2]; 150 μM of ZnCl2),levels of expression of PML (PML protein),cell death evaluated by TUNEL (positive TUNEL signal) (REF (T) PML cells [3]; [4]) [%],"cell death evaluated by TUNEL (REF (T) PML cells [3]; without IFNα, treated for two days, 10^-6 M of As2O3 or of zVAD) [%]",time to death of the whole cell population (Primary monocytes; zVAD added with α-interferon) [h],"cell death with zVAD alone (Primary monocytes; zVAD alone after seven days, three cultures out of eleven)","cell death with zVAD alone (Primary monocytes; zVAD alone for 20 days, most of the primary cultures (8/11))","effect on cell death induced by PML (REF (T) PML cells [1]; ZnCl2 induction, FIG. 1C)","effect on apoptosis induced by etoposide (REF (T) PML cells [1]; etoposide-treated cells, FIG. 1C)",positive TUNEL signal (REF (T) PML cells [1]; zVAD and ZnCl2) [%],kinetics of cell death induction (REF (T) PML cells [3]; compared with ZnCl2 induction),"cell death evaluated by TUNEL (positive TUNEL signal) (REF (T) PML cells [3]; treated for two days, 10^-6 M of As2O3 or of zVAD, listed as α-interferon) [%]",time to complete disappearance of the cell culture (Primary monocytes; α-interferon alone (1 000 U/ml))
[Cl-].[Cl-].[Zn+2] [ZnCl2],45,48,six,–,–,–,–,–,–,–,–,–,–,–,–
"COC(=O)C[C@H](NC(=O)[C@H](C)NC(=O)[C@@H](NC(=O)OCc1ccccc1)C(C)C)C(=O)CF [zVAD, benzyloxycarbonyl-Val-Ala-Asp(O-methyl) fluoromethyl ketone] (Cbz-Val-Ala-Asp(OMe)-CH2F)",–,–,–,increased,60,5,≤ 24,induced the death of part of the culture,Little or no cell death,does not inhibit cell death induced by PML,blocks apoptosis induced by etoposide,71,–,–,–
IFNα,–,–,–,induces rat PML,42,–,–,–,–,–,–,–,same kinetics as 50 μM ZnCl2,42,seven
